# Data taken from ChEMBL document CHEMBL1146773, “Synthesis of dammarane-type triterpenoids with anti-inflammatory activity in vivo” (2004).
# Key:
# Assay type in all cases: functional
# [1] = test system: Mus musculus; assay: In vivo anti-inflammatory activity determined by inhibition of oxazolone-induced allergic contact dermatitis (ACD) in mouse up on tropical application; parameters: concentration or dose not given beside the values
# [2] = test system: Mus musculus; assay: In vivo antiinflammatory activity of 0.4 uM concentration of compound was determined by inhibition of oxazolone-induced allergic contact dermatitis (ACD) in mouse up on tropical application
# [3] = test system: Mus musculus; assay: In vivo antiinflammatory activity of 4 uM concentration of compound was determined by inhibition of oxazolone-induced allergic contact dermatitis (ACD) in mouse up on tropical application
# [4] = test system: Sus scrofa; assay: In vivo antiinflammatory activity of 40 uM concentration of compound was determined by inhibition of oxazolone-induced allergic contact dermatitis (ACD) in pig up on tropical application
# [5] = test system: Mus musculus; assay: In vivo antiinflammatory activity of 40 uM concentration of compound was determined by inhibition of oxazolone-induced allergic contact dermatitis (ACD) in mouse up on tropical application
# [6] = test system: Sus scrofa; assay: In vivo antiinflammatory activity of 130 uM concentration of compound was determined by inhibition of oxazolone-induced allergic contact dermatitis (ACD) in pig up on tropical application
# [7] = test system: Sus scrofa; assay: In vivo antiinflammatory activity of 400 uM concentration of compound was determined by inhibition of oxazolone-induced allergic contact dermatitis (ACD) in pig up on tropical application
# [8] = test system: Mus musculus; assay: In vivo antiinflammatory activity of compound was determined by inhibition of oxazolone-induced allergic contact dermatitis (ACD) in mouse up on tropical application
# [9] = test system: Mus musculus; assay: In vivo antiinflammatory activity of 0.04 uM concentration of compound was determined by inhibition of oxazolone-induced allergic contact dermatitis (ACD) in mouse up on tropical application
SMILES,Inhibition [1],also measured
CC(=O)[C@H]1CC[C@]2(C)[C@@H]1CC[C@@H]1[C@@]3(C)CC[C@H](O)C(C)(C)[C@@H]3CC[C@]12C,12%,
CC(NCCc1ccc(S(N)(=O)=O)cc1)[C@H]1CC[C@]2(C)[C@@H]1CC[C@H]1[C@H]2CC[C@H]2C(C)(C)[C@@H](O)CC[C@]12C (stereo not given in full),16%,
CC(NCCc1ccccc1-n1ccnc1)[C@H]1CC[C@]2(C)[C@@H]1CC[C@H]1[C@H]2CC[C@H]2C(C)(C)[C@@H](O)CC[C@]12C (stereo not given in full),13%,
CC(NCc1nc2ccccc2[nH]1)[C@H]1CC[C@]2(C)[C@@H]1CC[C@H]1[C@H]2CC[C@H]2C(C)(C)[C@@H](O)CC[C@]12C (stereo not given in full),27%,
CC(C)CCC(=O)N[C@@H](C)[C@H]1CC[C@]2(C)[C@@H]1CC[C@H]1[C@H]2CC[C@H]2C(C)(C)[C@@H](O)CC[C@]12C,33%,
C[C@H](NC(=O)/C=C/c1ccccc1)[C@H]1CC[C@]2(C)[C@@H]1CC[C@H]1[C@H]2CC[C@H]2C(C)(C)[C@@H](O)CC[C@]12C,11%,
C=C(CCc1ccccc1)[C@H]1CC[C@]2(C)[C@@H]1CC[C@H]1[C@H]2CC[C@H]2C(C)(C)[C@@H](O)CC[C@]12C,36%,
C=C(C/C=C/C(C)(C)O)[C@@H]1CC[C@]2(C)[C@@H]1CC[C@@H]1[C@@]3(C)CC[C@H](O)C(C)(C)[C@@H]3CC[C@]12C,,Inhibition [2]: 6%; Inhibition [3]: 37%; Inhibition [4]: 28%; Inhibition [5]: 65%; Inhibition [6]: 43%
CCCCNC(C)[C@H]1CC[C@]2(C)[C@@H]1CC[C@H]1[C@H]2CC[C@H]2C(C)(C)[C@@H](O)CC[C@]12C (stereo in doubt; 4aA),30%,
CCCCNC(C)[C@H]1CC[C@]2(C)[C@@H]1CC[C@H]1[C@H]2CC[C@H]2C(C)(C)[C@@H](O)CC[C@]12C (stereo in doubt; 4aB),28%,
CC(NCc1ccccc1)[C@H]1CC[C@]2(C)[C@@H]1CC[C@H]1[C@H]2CC[C@H]2C(C)(C)[C@@H](O)CC[C@]12C (stereo in doubt; 4bA),28%,
CC(NCc1ccccc1)[C@H]1CC[C@]2(C)[C@@H]1CC[C@H]1[C@H]2CC[C@H]2C(C)(C)[C@@H](O)CC[C@]12C (stereo in doubt; 4bB),15%,
CC(NCC(=O)OC(C)(C)C)[C@H]1CC[C@]2(C)[C@@H]1CC[C@H]1[C@H]2CC[C@H]2C(C)(C)[C@@H](O)CC[C@]12C (stereo in doubt; 4dA),31%,
CC(NCC(=O)OC(C)(C)C)[C@H]1CC[C@]2(C)[C@@H]1CC[C@H]1[C@H]2CC[C@H]2C(C)(C)[C@@H](O)CC[C@]12C (stereo in doubt; 4dB),21%,
C[C@H](N)[C@H]1CC[C@]2(C)[C@@H]1CC[C@H]1[C@H]2CC[C@H]2C(C)(C)[C@@H](O)CC[C@]12C (stereo in doubt; 5A),38%,
C[C@H](N)[C@H]1CC[C@]2(C)[C@@H]1CC[C@H]1[C@H]2CC[C@H]2C(C)(C)[C@@H](O)CC[C@]12C (stereo in doubt; 5B),41%,
CC1(C)[C@@H](O)CC[C@]2(C)[C@H]3CC[C@@H]4[C@@H](C(O)CCc5ccccc5)CC[C@@]4(C)[C@@H]3CC[C@@H]12 (stereo in doubt; 11A),12%,
CC1(C)[C@@H](O)CC[C@]2(C)[C@H]3CC[C@@H]4[C@@H](C(O)CCc5ccccc5)CC[C@@]4(C)[C@@H]3CC[C@@H]12 (stereo in doubt; 11B),14%,
CC1(C)[C@@H](O)CC[C@]2(C)[C@H]3CC[C@@H]4[C@@H](C(CCc5ccccc5)NCc5ccccc5)CC[C@@]4(C)[C@@H]3CC[C@@H]12 (stereo in doubt; 12A),22%,
CC1(C)[C@@H](O)CC[C@]2(C)[C@H]3CC[C@@H]4[C@@H](C(CCc5ccccc5)NCc5ccccc5)CC[C@@]4(C)[C@@H]3CC[C@@H]12 (stereo in doubt; 12B),15%,
CC1(C)[C@@H](O)CC[C@]2(C)[C@H]3CC[C@@H]4[C@@H](C(N)CCc5ccccc5)CC[C@@]4(C)[C@@H]3CC[C@@H]12 (stereo in doubt; 13A),30%,
CC1(C)[C@@H](O)CC[C@]2(C)[C@H]3CC[C@@H]4[C@@H](C(N)CCc5ccccc5)CC[C@@]4(C)[C@@H]3CC[C@@H]12 (stereo in doubt; 13B),6%,
CC(CCc1ccccc1)[C@H]1CC[C@]2(C)[C@@H]1CC[C@H]1[C@H]2CC[C@H]2C(C)(C)[C@@H](O)CC[C@]12C (stereo in doubt; 15A),30%,
CC(CCc1ccccc1)[C@H]1CC[C@]2(C)[C@@H]1CC[C@H]1[C@H]2CC[C@H]2C(C)(C)[C@@H](O)CC[C@]12C (stereo in doubt; 15B),29%,
C[C@@H]1C[C@H]2[C@@H]3CCC4=CC(=O)C=C[C@]4(C)[C@@]3(F)[C@@H](O)C[C@]2(C)[C@@]1(O)C(=O)CO [DEXAMETHASONE],,Inhibition [2]: 41%; Inhibition [7]: 32%; Inhibition [4]: 20%; Inhibition [5]: 35%; Inhibition [8]: 42%; Inhibition [9]: 16%; Inhibition [6]: 35%
